Earlier results, collected in patent US20130079315A1, “Ophthalmic Gel Compositions” (priority 2011, published 2013).

- solubility in water: about 0.008 mg/mL
Structure (SMILES): CCOC(=O)O[C@]1(C(=O)OCCl)CC[C@H]2[C@@H]3CCC4=CC(=O)C=C[C@]4(C)[C@H]3[C@@H](O)C[C@@]21C [LE, (11β,17α),-7-((Ethoxycarbonyl)oxy)-11-hydroxy-3-oxoandrosta-1,4-diene-17-carboxylic acid chloromethyl ester]
